Target: T1, human OX2 receptor (Homo sapiens, UniProt O43614)
T1 construct: expressed in transfected cells
T1 sequence (O43614 1-444): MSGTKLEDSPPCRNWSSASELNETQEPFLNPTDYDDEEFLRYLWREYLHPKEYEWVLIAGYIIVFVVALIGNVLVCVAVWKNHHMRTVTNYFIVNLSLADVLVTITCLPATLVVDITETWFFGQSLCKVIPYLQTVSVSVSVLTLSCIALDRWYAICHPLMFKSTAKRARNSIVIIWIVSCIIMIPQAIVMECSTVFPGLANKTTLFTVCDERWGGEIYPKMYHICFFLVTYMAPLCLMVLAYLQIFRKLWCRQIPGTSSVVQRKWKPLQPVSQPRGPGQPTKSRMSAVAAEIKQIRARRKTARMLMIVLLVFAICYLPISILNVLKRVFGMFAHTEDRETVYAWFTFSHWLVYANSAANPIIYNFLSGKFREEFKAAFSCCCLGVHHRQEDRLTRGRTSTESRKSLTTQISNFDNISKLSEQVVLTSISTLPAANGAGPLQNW
Assay: Measurement of orexin type 2 receptor agonist activity (Experimental Example 2; Fluo-4 AM calcium fluorescence, FDSS μCELL)
Format: cell-based
Conditions: compound at 3 μM; CHO cells expressing human OX2 receptor; DMSO = 0%, 10 nM orexin A (human) = 100%
In short: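 Agonism was tested in CHO-K1 cells stably expressing human OX2 receptor (residues 1-444), loaded with Fluo-4 AM plus probenecid. Calcium fluorescence was recorded for 1 min 40 s after compound addition. Activity (%) was scaled between DMSO (0%) and 10 nM orexin A (100%) and reported at 3 μM compound.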

OX2R agonist activity (3 μM, %) | Compound
102% | CS(=O)(=O)N[C@@H]1[C@@H]2Cc3cccc(c3F)Oc3nc(ccc3Cl)OCC(=O)N2CC1(F)F [Example 62, N-[(15aS,16R)-7-chloro-17,17,20-trifluoro-1-oxo-1,2,15a,16,17,18-hexahydro-15H-4,8-(azeno)-14,10-(metheno)pyrrolo[1,2-d][1,12,4]dioxazacyclo-heptadecin-16-yl]methanesulfonamide]
106% | CNS(=O)(=O)N[C@@H]1[C@@H]2Cc3cccc(c3F)Oc3nc(ccc3Cl)OCC(=O)N2CC1(F)F [Example 63, N-[(15aS,16R)-7-chloro-17,17,20-trifluoro-1-oxo-1,2,15a,16,17,18-hexahydro-15H-4,8-(azeno)-10,14-(metheno)pyrrolo[1,2-d][1,12,4]dioxazacyclo-heptadecin-16-yl]-N′-methylsulfuric diamide]
105% | CS(=O)(=O)N[C@@H]1[C@@H]2Cc3cccc(c3F)Oc3nc(ncc3Cl)OCC(=O)N2CC1(F)F [Example 64, N-[(15aS,16R)-7-chloro-17,17,20-trifluoro-1-oxo-1,2,15a,16,17,18-hexahydro-15H-4,8-(azeno)-10,14-(metheno)pyrrolo[2,1-n][1,7,3,15]dioxadiazacyclo-heptadecin-16-yl]methanesulfonamide]
102% | Cc1ncc2nc1Oc1cccc(c1F)C[C@H]1[C@@H](NS(C)(=O)=O)C(F)(F)CN1C(=O)CO2 [Example 65, N-[(15aS,16R)-17,17,20-trifluoro-7-methyl-1-oxo-1,2,15a,16,17,18-hexahydro-15H-4,8-(azeno)-10,14-(metheno)pyrrolo[1,2-j][1,7,4,10]dioxadiazacyclo-heptadecin-16-yl]methanesulfonamide]
97% | Cc1ccc2nc1COc1cccc(c1F)C[C@H]1[C@@H](NS(C)(=O)=O)C(F)(F)CN1C(=O)CO2 [Example 66, N-[(16aS,17R)-18,18,21-trifluoro-7-methyl-1-oxo-1,2,16a,17,18,19-hexahydro-9H,16H-4,8-(azeno)-11,15-(metheno)pyrrolo[1,2-d][1,12,4]dioxazacyclo-octadecin-17-yl]methanesulfonamide]
103% | CS(=O)(=O)N[C@H]1[C@@H](F)CN2C(=O)COc3ccc(Cl)c(n3)Cc3cccc(c3F)C[C@@H]12 [Example 67, N-[(15aS,16R,17S)-7-chloro-17,20-difluoro-1-oxo-1,2,15a,16,17,18-hexahydro-9H,15H-4,8-(azeno)-14,10-(metheno)pyrrolo[1,2-d][1,4]oxazacycloheptadecin-16-yl]methanesulfonamide]
101% | CCS(=O)(=O)N[C@H]1[C@@H](F)CN2C(=O)COc3ccc(Cl)c(n3)Oc3cccc(c3)C[C@@H]12 [Example 69, N-[(15aS,16R,17S)-7-chloro-17-fluoro-1-oxo-1,2,15a,16,17,18-hexahydro-15H-4,8-(azeno)-14,10-(metheno)pyrrolo[1,2-d][1,12,4]dioxazacyclo-heptadecin-16-yl]ethanesulfonamide]
103% | CCS(=O)(=O)N[C@H]1[C@@H](F)CN2C(=O)N(C)Cc3ccc(Cl)c(n3)Oc3cccc(c3)C[C@@H]12 [Example 70, N-[(15aS,16R,17S)-7-chloro-17-fluoro-2-methyl-1-oxo-2,3,15a,16,17,18-hexahydro-1H,15H-4,8-(azeno)-10,14-(metheno)pyrrolo[1,2-j][1,8,10]oxadiazacyclo-heptadecin-16-yl]ethanesulfonamide]
99% | CCS(=O)(=O)N[C@H]1[C@@H](F)CN2C(=O)COc3ncc(C)c(n3)Oc3cccc(c3)C[C@@H]12 [Example 71, N-[(15aS,16R,17S)-17-fluoro-7-methyl-1-oxo-1,2,15a,16,17,18-hexahydro-15H-4,8-(azeno)-10,14-(metheno)pyrrolo[2,1-n][1,7,3,15]dioxadiazacyclo-heptadecin-16-yl]ethanesulfonamide]
104% | CCS(=O)(=O)N[C@H]1[C@@H](F)CN2C(=O)COc3ccc(Cl)c(n3)Cc3cccc(c3F)C[C@@H]12 [Example 72, N-[(15aS,16R,17S)-7-chloro-17,20-difluoro-1-oxo-1,2,15a,16,17,18-hexahydro-9H,15H-4,8-(azeno)-14,10-(metheno)pyrrolo[1,2-d][1,4]oxazacycloheptadecin-16-yl]ethanesulfonamide]
101% | CCS(=O)(=O)N[C@H]1[C@@H](F)CN2C(=O)N(C)Cc3ccc(Cl)c(n3)Oc3cccc(c3F)C[C@@H]12 [Example 73, N-[(15aS,16R,17S)-7-chloro-17,20-difluoro-2-methyl-1-oxo-2,3,15a,16,17,18-hexahydro-1H,15H-4,8-(azeno)-10,14-(metheno)pyrrolo[1,2-j][1,8,10]oxadiazacyclo-heptadecin-16-yl]ethanesulfonamide]
96% | Cc1cnc2nc1Oc1cccc(c1F)C[C@H]1[C@@H](NS(C)(=O)=O)C(F)(F)CN1C(=O)[C@@H]1C[C@@H](F)CN21 [Example 74, N-[(2R,16aS,17R,21aS)-2,18,18,22-tetrafluoro-8-methyl-21-oxo-2,3,16a,17,18,19,21,21a-octahydro-1H,16H-5,9-(azeno)-11,15-(metheno)dipyrrolo[1,2-g:1′,2′-j][1,5,7,10]oxatriazacyclo-heptadecin-17-yl]methanesulfonamide]
95% | Cc1cnc2nc1Oc1cccc(c1F)C[C@H]1[C@@H](NS(C)(=O)=O)C(F)(F)CN1C(=O)CN2C [Example 75, N-[(15aS,16R)-17,17,20-trifluoro-3,7-dimethyl-1-oxo-2,3,15a,16,17,18-hexahydro-1H,15H-4,8-(azeno)-10,14-(metheno)pyrrolo[1,2-j][1,5,7,10]oxatriazacyclo-heptadecin-16-yl]methanesulfonamide]
96% | CCS(=O)(=O)N[C@H]1[C@@H](F)CN2C(=O)COc3ccc(Br)c(n3)Oc3cccc(c3)C[C@@H]12 [Example 76, N-[(15aS,16R,17S)-7-bromo-17-fluoro-1-oxo-1,2,15a,16,17,18-hexahydro-15H-4,8-(azeno)-14,10-(metheno)pyrrolo[1,2-d][1,12,4]dioxazacyclo-heptadecin-16-yl]ethanesulfonamide]
104% | Cc1cnc2nc1Oc1cccc(c1F)C[C@H]1[C@@H](NS(C)(=O)=O)C(F)(F)CN1C(=O)CO2 [Example 77, N-[(15aS,16R)-17,17,20-trifluoro-7-methyl-1-oxo-1,2,15a,16,17,18-hexahydro-15H-4,8-(azeno)-10,14-(metheno)pyrrolo[2,1-n][1,7,3,15]dioxadiazacyclo-heptadecin-16-yl]methanesulfonamide]
97% | CCS(=O)(=O)N[C@H]1[C@@H](F)CN2C(=O)COc3ccc(C)c(n3)Oc3cccc(c3)C[C@@H]12 [Example 78, N-[(15aS,16R,17S)-17-fluoro-7-methyl-1-oxo-1,2,15a,16,17,18-hexahydro-15H-4,8-(azeno)-14,10-(metheno)pyrrolo[1,2-d][1,12,4]dioxazacyclo-heptadecin-16-yl]ethanesulfonamide]
102% | CCc1ccc2nc1Oc1cccc(c1F)C[C@H]1[C@@H](NS(C)(=O)=O)C(F)(F)CN1C(=O)NC2 [Example 79, N-[(15aS,16R)-7-ethyl-17,17,20-trifluoro-1-oxo-2,3,15a,16,17,18-hexahydro-1H,15H-4,8-(azeno)-14,10-(metheno)pyrrolo[1,2-j][1,8,10]oxadiazacyclo-heptadecin-16-yl]methanesulfonamide]
100% | CCS(=O)(=O)N[C@H]1[C@@H](F)CN2C(=O)COc3ccc(Cl)c(n3)Oc3cccc(c3F)C[C@@H]12 [Example 80, N-[(15aS,16R,17S)-7-chloro-17,20-difluoro-1-oxo-1,2,15a,16,17,18-hexahydro-15H-4,8-(azeno)-14,10-(metheno)pyrrolo[1,2-d][1,12,4]dioxazacyclo-heptadecin-16-yl]ethanesulfonamide]
102% | CCS(=O)(=O)N[C@@H]1[C@@H]2Cc3cccc(c3F)Oc3nc(cnc3C)OCC(=O)N2CC1(F)F [Example 81, N-[(15aS,16R)-17,17,20-trifluoro-7-methyl-1-oxo-1,2,15a,16,17,18-hexahydro-15H-4,8-(azeno)-10,14-(metheno)pyrrolo[1,2-j][1,7,4,10]dioxadiazacyclo-heptadecin-16-yl]ethanesulfonamide]
101% | CCS(=O)(=O)N[C@H]1[C@@H](F)CN2C(=O)CCc3ccc(Cl)c(n3)Oc3cccc(c3F)C[C@@H]12 [Example 82, N-[(1R,2S,19aS)-11-chloro-2,20-difluoro-5-oxo-2,3,6,7,19,19a-hexahydro-1H,5H-12,8-(azeno)-14,18-(metheno)pyrrolo[2,1-h][1,9]oxazacycloheptadecin-1-yl]ethanesulfonamide]
96% | CO[C@@H]1C[C@H]2C(=O)N3CC(F)(F)[C@H](NS(C)(=O)=O)[C@@H]3Cc3cccc(c3F)Oc3nc(ncc3C)N2C1 [Example 83, N-[(2R,16aS,17R,21aS)-18,18,22-trifluoro-2-methoxy-8-methyl-21-oxo-2,3,16a,17,18,19,21,21a-octahydro-1H,16H-5,9-(azeno)-11,15-(metheno)dipyrrolo[1,2-g:1′,2′-j][1,5,7,10]oxatriazacyclo-heptadecin-17-yl]methanesulfonamide]

From US20240309016A1, “MACROCYCLIC HETEROCYCLE COMPOUNDS AND USE THEREOF” (TAKEDA PHARMACEUTICAL COMPANY LIMITED, priority 2023, published 2024)
